Data on 23 compounds can be found in US9458104B2 (priority 2012, dated 2016).

For one assay, the target named is T1, RORγ (UniProt P51449).
T1 construct: hRORg-LBD|aa259-518|NP_005051.2; hRORgt|aa1-497|NP_001001523 (RORg, t isoform, 497aa); mRORg-LBD|aa264-516|NP_035411
T1 sequence (P51449 1-518): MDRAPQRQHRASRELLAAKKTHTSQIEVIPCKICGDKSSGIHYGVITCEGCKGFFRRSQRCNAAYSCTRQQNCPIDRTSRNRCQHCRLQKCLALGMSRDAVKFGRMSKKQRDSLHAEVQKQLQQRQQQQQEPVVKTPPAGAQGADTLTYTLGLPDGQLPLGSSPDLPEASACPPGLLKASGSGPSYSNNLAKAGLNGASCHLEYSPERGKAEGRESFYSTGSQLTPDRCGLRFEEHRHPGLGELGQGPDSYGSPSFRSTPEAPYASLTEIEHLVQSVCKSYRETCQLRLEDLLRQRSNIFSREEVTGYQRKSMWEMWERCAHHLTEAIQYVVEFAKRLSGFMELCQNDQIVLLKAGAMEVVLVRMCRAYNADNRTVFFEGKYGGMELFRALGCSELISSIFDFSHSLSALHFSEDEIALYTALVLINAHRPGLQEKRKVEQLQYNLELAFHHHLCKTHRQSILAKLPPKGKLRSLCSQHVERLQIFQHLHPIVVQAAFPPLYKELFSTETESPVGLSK
The format is cell-based. The note with it: 293T cells, 16 h; for pIC50 (FF): firefly (FF) luciferase; for pIC50 (REN): renilla normalised (RENnorm) luciferase. The protocol: Determination of a ligand mediated Gal4 promoter driven transactivation to quantify ligand binding to RORγ was performed as follows: DNA encoding three different RORγ. protein fragments was cloned into vector pCMV-BD (Stratagene). Expression was under control of a CMV promoter and as fusion to the DNA-binding domain of the yeast protein GAL4. Other vectors used were pFR-Luc (Stratagene) as regulated reporter plasmid. pFR-Luc contains a synthetic promoter with five tandem repeats of the yeast GAL4 binding sites that control expression of the Photinus pyralis (American firefly) luciferase gene. In order to improve experimental accuracy the plasmid pRL-CMV was cotransfected. pRL-CMV contains the constitutive CMV promoter, controlling the expression of the Renilla reniformis luciferase.
All Gal4 reporter gene assays were done in 293T cells (DSMZ (German Collection of Microorganisms and Cell Cultures), Braunschweig, Germany, ACC635) grown in Minimum Essential Medium (MEM) with Phenol Red. The medium is supplemented with 10% fetal bovine serum, 0.1 mM nonessential amino acids, 1 mM sodium pyruvate, 1% Glutamax and 100 units Penicilin/[…] per mL at 37° C. in 5% CO2.
For the assay, […] were plated per well in 96 well plates in 100 μL per well, incubated over night at 37° C. in 5% CO2. The following day, medium was discarded and the cells were transiently transfected using 20 μL per well of a OptiMEM—PEI-based transfection-reagent (Sigma-Aldrich, 408727) including the three plasmids described above. About 4 h after addition of the transfection solution, fresh Minimal Essential Medium (MEM, same composition as used for plating cells, but without serum) was added. Then compound stocks, prediluted in MEM (same composition as used for plating cells) were added (final vehicle concentration not exceeding 0.1%).
All experiments were done at least in triplicates.
It is understood that the data illustrated below may have reasonable variation depending on the specific conditions and procedures used by the person conducting the test.

The target in assay [1] is T2, RORγ ligand binding domain (LBD) (Homo sapiens, UniProt P51449).
T2 construct: made in house; host or cells: E. coli BL-21 (BL3), vector pDEST15
T2 sequence (P51449 269-508 limits assumed): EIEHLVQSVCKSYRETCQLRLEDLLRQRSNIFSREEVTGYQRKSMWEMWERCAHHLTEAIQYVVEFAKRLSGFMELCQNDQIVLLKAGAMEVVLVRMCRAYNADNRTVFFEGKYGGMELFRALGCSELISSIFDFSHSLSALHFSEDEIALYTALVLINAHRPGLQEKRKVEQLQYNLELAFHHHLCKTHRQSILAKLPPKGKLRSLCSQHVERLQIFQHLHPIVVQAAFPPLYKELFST
Put plainly: TR-FRET Activity Assay (ligand sensing assay, RORγ-LBD / coactivator peptide interaction). It counts as biochemical. The text has this:
This method measures the ability of putative ligands to modulate the interaction between the purified bacterial expressed RORγ ligand binding domain (LBD) and synthetic N-terminally biotinylated peptides which are derived from nuclear receptor coactivator proteins such as but not limited to SRC1 (NcoA1), SRC2 (NcoA2, TIF2), SRC3 (NcoA3), PGC1α, PGC1β, CBP, GRIP1, TRAP220, RIP140.
The ligand-binding domain (LBD) of RORγ was expressed as fusion protein with GST in […] cells using the vector pDEST15. Cells were lysed by lysozyme-treatment and sonication, and the fusion proteins purified over glutathione sepharose (Pharmacia) according to the manufacturers instructions. For screening of compounds for their influence on the RORγ-peptide interaction, the LANCE technology (Perkin Elmer) was applied. This method relies on the binding dependent energy transfer from a donor to an acceptor fluorophor attached to the binding partner of interest. For ease of handling and reduction of background from compound fluorescence LANCE technology makes use of generic fluorophore labels and time resolved detection assays were done in a final volume of 25 μL in a 384 well plate, in a Tris-based buffer system (20 mM Tris-HCl pH6.8; 60 mM KCl, 1 mM DTT; 5 mM MgCl2; 35 ng/μL BSA), containing 20-60 ng/well recombinantly expressed RORγ-LBD fused to GST, 200-600 nM N-terminally biotinylated peptide, 200 ng/well Streptavidin-xIAPC conjugate (Prozyme) and 6-10 ng/well Eu W1024-antiGST (Perkin Elmer). DMSO content of the samples was kept at 1%.
After generation of the Tris-based buffer system, the potentially RORγ modulating ligands were diluted. […] The LANCE signal was detected by a Perkin Elmer EnVision™ Multilabel Counter. The results were visualized by plotting the ratio between the emitted light at 665 nm and 615 nm. […] Ligands that promote the complex formation induce a concentration-dependent increase in time-resolved fluorescent signal.
To assess the antagonistic potential of the compounds, IC50 values were determined using a Ligand Sensing Assay based on Time-resolved Fluorescence Energy Transfer (TR-FRET) as described above. The normalised TR-FRET assay values, using the following equation: 1000*665 nm measurement value/615 nm measurement value, were transferred to the program GraphPad Prism to generate graphs and dose response curves using the following equation: […]
This is identical to the “four parameter logistic equation”. The IC50 values are calculated using this equation. […] Is is understood that the data illustrated below may have reasonable variation depending on the specific conditions and procedures used by the person conducting the test.
For orientation: In TR-FRET formats the signal depends on donor and acceptor labels being close together.

Bounds are passed on as bounds.

`Cn1c(C(=O)NCC(C)(C)O)cc(-c2ccc(S(=O)(=O)NC(C)(C)C)c3ccccc23)c1CC1CCCCC1` [8/7]: at RORγ, the “pIC50 (FF)” value stood at 7.8 and the “pIC50 (REN)” value was determined as 7.9. In addition, in assay [1], the IC50 (commonly the concentration needed to halve the response being measured) is 501 nM.
The like results for `Cn1c(C(=O)NC23CCC(C(=O)O)(CC2)CC3)cc(-c2ccc(S(=O)(=O)NC(C)(C)C)c3ccccc23)c1CC1CCCCC1` [8/8] were, in that order, 8.4, 8.4 and 2000 nM.
As for `Cn1c(C(=O)NCCC(C)(C)C(=O)O)cc(-c2cc(C(C)(C)C)cc(C3(C)CC3)c2)c1CC1CCCCC1` [8/10], on RORγ, the “pIC50 (FF)” value came to 7.4 and the “pIC50 (REN)” value is given as 7.5. The same compound had an IC50 in assay [1] of 794 nM.
The like results for `Cn1c(C(=O)N[C@H]2CC[C@H](C(=O)O)CC2)cc(-c2cc(C(C)(C)C)cc(C3(C)CC3)c2)c1CC1CCCCC1` [8/11] were, in that order, 7.3, 7.4 and 1260 nM.
The like results for `Cn1c(C(=O)NC23CCC(C(=O)O)(CC2)C3)cc(-c2cc(C(C)(C)C)cc(C3(C)CC3)c2)c1CC1CCCCC1` [8/12] were, in that order, 7.7, 7.8 and 1000 nM.
The like results for `Cn1c(C(=O)NCC(C)(C)C(=O)O)cc(-c2cc(C(C)(C)C)cc(C3(C)CC3)c2)c1CC1CCCCC1` [8/13] were, in that order, 7.4, 7.6 and 2510 nM.
Take `Cn1c(C(=O)NC23CCC(C(=O)O)(CC2)CC3)cc(-c2cc(C(C)(C)C)cc(C3(C)CC3)c2)c1CC1CCCCC1` [8/14]: at RORγ, the “pIC50 (FF)” value was 7.4 and the “pIC50 (REN)” value turned out to be 7.6. Also, the half-maximal inhibitory concentration (IC50) in assay [1] is 2000 nM.
For `Cn1c(C(=O)N2CC(C(C)(C)C(=O)O)C2)cc(-c2cc(C(C)(C)C)cc(C3(C)CC3)c2)c1CC1CCCCC1` [8/15], at RORγ, the “pIC50 (FF)” value was 7.2 and the “pIC50 (REN)” value is 7.4. The compound further showed a concentration for half-maximal inhibition (IC50) in assay [1] of 2000 nM.
Regarding `Cn1c(C(=O)N2CCC(C)(C(=O)O)CC2)cc(-c2cc(C(C)(C)C)cc(C3(C)CC3)c2)c1CC1CCCCC1` [8/16], on RORγ, the “pIC50 (FF)” value was 7.5 and the “pIC50 (REN)” value was 7.6. The IC50 in assay [1] is 1580 nM.
The corresponding values for `C[C@H](NC(=O)c1cc(-c2cc(C(=O)N[C@H]3C[C@H](C(=O)O)C3)n(C)c2CC2CCCCC2)cc(C2(C)CC2)c1)C(F)(F)F` [8/17] are 7.7, 7.9 and 1000 nM.
For the compound `Cn1c(C(=O)N[C@H]2C[C@H](C(=O)O)C2)cc(-c2cc(C(C)(C)C)nc(C3(C)CC3)n2)c1CC1CCCCC1` [8/18], on RORγ, the “pIC50 (FF)” value is on record as 6.7 and the “pIC50 (REN)” value stood at 6.7. In assay [1], this compound had a half-inhibitory concentration (IC50) of 794 nM.
In the case of `Cn1c(C(=O)N[C@H]2C[C@H](C(=O)O)C2)cc(-c2cc(C(C)(C)C)nc(C(C)(C)C)n2)c1CC1CCCCC1` [8/19], at RORγ, the “pIC50 (FF)” value was 6.8 and the “pIC50 (REN)” value turned out to be 6.8. In assay [1], this compound showed an IC50 of 794 nM.
As for `Cn1c(C(=O)NC2CCOCC2)cc(CC2CCCCC2)c1-c1cc(C(C)(C)C)cc(C2(C)CC2)c1` [19/2], at RORγ, the “pIC50 (FF)” value amounted to 6.9 and the “pIC50 (REN)” value amounted to 6.9. In addition, the 50% inhibitory concentration (IC50) in assay [1] was 501 nM.
Consider `CC(C)(C)c1cc(-c2cc(C(=O)NC3CCOCC3)nn2CC2CCCCC2)cc(C2(C)CC2)c1` [100/1], for which, at RORγ, the “pIC50 (FF)” value is given as 7.3 and the “pIC50 (REN)” value is recorded as 7.4. In assay [1], this compound showed an IC50 of 79.4 nM.
The corresponding values for `CC(C)(C)NS(=O)(=O)c1ccc(-c2cc(C(=O)NC3CCOCC3)nn2CC2CCCCC2)cc1C(C)(C)C` [100/2] are 7.3, 7.4 and 794 nM.
The corresponding values for `CC(C)(C)NS(=O)(=O)c1ccc(-c2cc(C(=O)N[C@H]3C[C@H](C(=O)O)C3)nn2CC2CCCCC2)cc1C(C)(C)C` [100/3] are 7.0, 7.1 and 794 nM.
As to `CC(C)(C)NS(=O)(=O)c1ccc(-c2cc(C(=O)NCCC(C)(C)C(=O)O)nn2CC2CCCCC2)cc1C(C)(C)C` [100/4], on RORγ, the “pIC50 (FF)” value was 6.6 and the “pIC50 (REN)” value was found to be 6.7. In assay [1], this compound had a half-inhibitory concentration (IC50) of 2000 nM.
The corresponding values for `CC(C)(C)NS(=O)(=O)c1ccc(-c2cc(C(=O)NC3CCOCC3)nn2CC2CCCCC2)cc1C(F)(F)F` [100/5] are 7.1, 7.2 and 501 nM.
The corresponding values for `CC(C)(C)NS(=O)(=O)c1ccc(-c2cc(C(=O)N[C@H]3C[C@H](C(=O)O)C3)nn2CC2CCCCC2)cc1C(F)(F)F` [100/6] are 6.3, 6.3 and 316 nM.
For the compound `CC(C)(C)NS(=O)(=O)c1ccc(-c2cc(C(=O)NCCC(C)(C)C(=O)O)nn2CC2CCCCC2)cc1C(F)(F)F` [100/7], at RORγ, the “pIC50 (FF)” value worked out at 6.2 and the “pIC50 (REN)” value was found to be 6.3. The IC50 in assay [1] is 1260 nM.
Consider `CC(C)NC(=O)c1cc(CC2CCCCC2)n(-c2cc(C(C)(C)C)cc(C(C)(C)C)c2)n1` [102/2], for which, on RORγ, the “pIC50 (FF)” value is recorded as less than 4.7 and the “pIC50 (REN)” value is recorded as less than 4.7. The half-maximal inhibitory concentration (IC50) in assay [1] is 631 nM.
`Cc1cc(-n2nc(C(=O)NC3CC3)cc2CC2CCCCC2)cc(C(C)(C)C)c1` [102/3]: at RORγ, the “pIC50 (FF)” value is 5.7 and the “pIC50 (REN)” value turned out to be 6.1. Also, in assay [1], the concentration for half-maximal inhibition (IC50) is 3160 nM.
The corresponding values for `CC(C)(C)c1cc(-n2nc(C(=O)NC3CCOCC3)c(Cl)c2CC2CCCCC2)cc(C(C)(C)C)c1` [103/2] are 6.3, 6.4 and 316 nM.
